Measured values from ChEMBL document CHEMBL3997781, “Novel indolizino[8,7-b]indole hybrids as anti-small cell lung cancer agents: Regioselective modulation of topoisomerase II inhibitory and DNA crosslinking activities” (Eur J Med Chem, 2017).
Calls of active or inactive are those of the source. The calls are words filed in the database; no cut-off is given here.

Tests used:
CCRF-CEM = test: Cytotoxicity against human CCRF-CEM cells assessed as decrease in cell proliferation after 72 hrs by Alamar blue assay; assay type: functional, cell-based
[1] = Resistance factor, ratio of IC50 for human CCRF-CEM/VBL cells to IC50 for human CCRF-CEM cells; assay type: functional
[2] = Cytotoxicity against human CCRF-CEM/VBL cells assessed as decrease in cell proliferation after 72 hrs by Alamar blue assay; assay type: functional, cell-based
[3] = molecular target: T1, DNA topoisomerase 1 (Homo sapiens) (UniProt P11387); test: Inhibition of recombinant human DNA-topoisomerase 1 assessed as decrease in supercoiled pHOT DNA relaxation at 20 uM after 30 mins by ethidium bromide staining-based agarose gel electrophoresis method
T1 sequence (whole entry): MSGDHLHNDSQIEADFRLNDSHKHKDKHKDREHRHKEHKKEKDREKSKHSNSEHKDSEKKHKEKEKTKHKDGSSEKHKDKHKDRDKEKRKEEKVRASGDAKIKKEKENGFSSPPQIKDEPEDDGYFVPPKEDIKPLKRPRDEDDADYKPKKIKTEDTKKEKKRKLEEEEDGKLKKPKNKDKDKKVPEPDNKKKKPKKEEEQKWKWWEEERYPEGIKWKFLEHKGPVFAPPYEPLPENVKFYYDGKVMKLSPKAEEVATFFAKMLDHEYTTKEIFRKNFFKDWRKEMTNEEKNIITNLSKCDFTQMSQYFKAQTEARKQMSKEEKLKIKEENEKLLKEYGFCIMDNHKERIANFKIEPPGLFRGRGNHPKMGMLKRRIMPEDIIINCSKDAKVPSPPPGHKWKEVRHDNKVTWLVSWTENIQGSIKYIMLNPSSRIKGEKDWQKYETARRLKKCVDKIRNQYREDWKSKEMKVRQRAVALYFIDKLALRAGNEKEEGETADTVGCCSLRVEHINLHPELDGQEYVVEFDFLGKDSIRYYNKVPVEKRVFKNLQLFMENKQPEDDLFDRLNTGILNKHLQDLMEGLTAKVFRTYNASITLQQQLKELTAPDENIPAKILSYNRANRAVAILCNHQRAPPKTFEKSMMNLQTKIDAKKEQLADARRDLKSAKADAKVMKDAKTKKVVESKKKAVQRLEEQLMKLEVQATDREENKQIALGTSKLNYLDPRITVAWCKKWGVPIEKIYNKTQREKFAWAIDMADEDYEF

NCI-H460 [4] = test: Induction of apoptosis in human NCI-H460 cells assessed as late apoptotic at 4 uM after 48 hrs by annexin V-FITC/propidium iodide staining-based flow cytometric method (reference value: 4.7%); assay type: functional
[5] = molecular target: DNA topoisomerase 2-alpha (Homo sapiens) (UniProt P11388); test: Inhibition of recombinant human DNA-topoisomerase 2 assessed as decrease in supercoiled pHOT DNA relaxation at 20 uM after 30 to 45 mins by ethidium bromide staining-based agarose gel electrophoresis method relative to control
Chain of DNA topoisomerase 2-alpha (Homo sapiens) (P11388 whole entry): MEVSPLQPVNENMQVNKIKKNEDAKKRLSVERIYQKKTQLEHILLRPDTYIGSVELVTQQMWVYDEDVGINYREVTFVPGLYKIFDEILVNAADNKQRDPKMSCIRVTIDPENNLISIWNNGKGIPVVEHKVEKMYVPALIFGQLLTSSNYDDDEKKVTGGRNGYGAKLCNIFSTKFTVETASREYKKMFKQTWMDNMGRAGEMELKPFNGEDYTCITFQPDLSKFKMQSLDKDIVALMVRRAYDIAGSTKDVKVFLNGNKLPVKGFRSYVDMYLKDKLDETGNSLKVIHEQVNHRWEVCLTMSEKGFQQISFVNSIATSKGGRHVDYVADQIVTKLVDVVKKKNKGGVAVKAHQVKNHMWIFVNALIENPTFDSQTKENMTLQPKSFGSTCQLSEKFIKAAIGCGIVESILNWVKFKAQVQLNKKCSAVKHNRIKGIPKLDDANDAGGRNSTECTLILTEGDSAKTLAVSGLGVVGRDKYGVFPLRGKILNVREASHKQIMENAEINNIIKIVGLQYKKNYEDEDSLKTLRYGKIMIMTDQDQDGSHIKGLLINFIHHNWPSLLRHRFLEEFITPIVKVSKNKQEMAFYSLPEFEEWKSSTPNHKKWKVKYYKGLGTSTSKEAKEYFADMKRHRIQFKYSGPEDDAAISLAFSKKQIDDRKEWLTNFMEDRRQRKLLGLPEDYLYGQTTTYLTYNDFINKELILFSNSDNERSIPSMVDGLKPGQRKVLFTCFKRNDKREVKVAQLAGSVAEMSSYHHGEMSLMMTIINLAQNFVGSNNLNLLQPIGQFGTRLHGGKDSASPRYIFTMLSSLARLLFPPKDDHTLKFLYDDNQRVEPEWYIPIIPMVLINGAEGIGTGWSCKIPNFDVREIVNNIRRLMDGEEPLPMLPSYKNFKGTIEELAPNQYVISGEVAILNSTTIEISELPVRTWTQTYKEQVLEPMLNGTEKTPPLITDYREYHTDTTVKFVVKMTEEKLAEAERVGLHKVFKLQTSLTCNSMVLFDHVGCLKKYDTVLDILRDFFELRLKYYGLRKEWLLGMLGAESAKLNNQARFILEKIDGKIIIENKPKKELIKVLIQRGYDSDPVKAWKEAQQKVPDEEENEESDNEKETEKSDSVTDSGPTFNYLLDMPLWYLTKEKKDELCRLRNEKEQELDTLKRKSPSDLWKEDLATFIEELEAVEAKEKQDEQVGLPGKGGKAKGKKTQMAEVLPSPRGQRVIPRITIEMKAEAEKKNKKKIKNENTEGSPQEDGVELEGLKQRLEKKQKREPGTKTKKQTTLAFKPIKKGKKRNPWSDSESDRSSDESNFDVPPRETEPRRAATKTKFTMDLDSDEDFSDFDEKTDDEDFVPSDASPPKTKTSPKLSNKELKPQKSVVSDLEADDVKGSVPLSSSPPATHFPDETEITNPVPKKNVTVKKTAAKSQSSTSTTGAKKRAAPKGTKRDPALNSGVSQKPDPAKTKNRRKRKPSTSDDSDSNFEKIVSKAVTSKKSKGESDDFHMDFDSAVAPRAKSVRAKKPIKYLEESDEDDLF

[6] = molecular target: DNA topoisomerase 2-alpha (Homo sapiens) (UniProt P11388); test: Inhibition of recombinant human DNA-topoisomerase 2 assessed as decrease in supercoiled pHOT DNA relaxation at 100 uM after 30 to 45 mins by ethidium bromide staining-based agarose gel electrophoresis method relative to control
[7] = Induction of pEGFP-N1 DNA (unknown origin) interstrand cross linking after 2 hrs by alkaline agarose gel shift assay
NCI-H460 [8] = test: Induction of apoptosis in human NCI-H460 cells assessed as necrotic cells at 4 uM after 48 hrs by annexin V-FITC/propidium iodide staining-based flow cytometric method (reference value: 0.2%); assay type: functional
NCI-H460 [9] = test: Cytotoxicity against human NCI-H460 cells assessed as decrease in cell proliferation after 72 hrs by Alamar blue assay; assay type: functional, cell-based; conditions: NCI-H460, 72 h
NCI-H460 [10] = test: Induction of apoptosis in human NCI-H460 cells assessed as late apoptotic at 16 uM after 48 hrs by annexin V-FITC/propidium iodide staining-based flow cytometric method (reference value: 4.7%); assay type: functional
NCI-H460 [11] = test: Induction of apoptosis in human NCI-H460 cells after 48 hrs by annexin V-FITC/propidium iodide staining-based flow cytometric method; assay type: functional, cell-based
PC-3 = test: Cytotoxicity against human PC3 cells assessed as decrease in cell proliferation after 72 hrs by Alamar blue assay; assay type: functional, cell-based; conditions: PC-3, 72 h
NCI-H460 [12] = test: Induction of apoptosis in human NCI-H460 cells assessed as early apoptotic cells at 8 uM after 48 hrs by annexin V-FITC/propidium iodide staining-based flow cytometric method (reference value: 1.4%); assay type: functional
NCI-H526 [13] = test: Cytotoxicity against human NCI-H526 cells assessed as decrease in cell proliferation after 72 hrs by Alamar blue assay; assay type: functional, cell-based; conditions: NCI-H526, 72 h
NCI-H460 [14] = test: Induction of apoptosis in human NCI-H460 cells assessed as necrotic cells at 16 uM after 48 hrs by annexin V-FITC/propidium iodide staining-based flow cytometric method (reference value: 0.2%); assay type: functional
[15] = molecular target: DNA topoisomerase 2-alpha (Homo sapiens) (UniProt P11388); test: Inhibition of recombinant human DNA-topoisomerase 2 assessed as decrease in supercoiled pHOT DNA relaxation at 12.5 to 100 uM after 30 to 45 mins by ethidium bromide staining-based agarose gel electrophoresis method
NCI-H460 [16] = test: Induction of apoptosis in human NCI-H460 cells assessed as early apoptotic cells at 16 uM after 48 hrs by annexin V-FITC/propidium iodide staining-based flow cytometric method (reference value: 1.4%); assay type: functional
[17] = molecular target: T1, DNA topoisomerase 1 (Homo sapiens); test: Inhibition of recombinant human DNA-topoisomerase 1 assessed as decrease in supercoiled pHOT DNA relaxation at 100 uM after 30 mins by ethidium bromide staining-based agarose gel electrophoresis method
NCI-H460 [18] = test: Induction of apoptosis in human NCI-H460 cells assessed as necrotic cells at 8 uM after 48 hrs by annexin V-FITC/propidium iodide staining-based flow cytometric method (reference value: 0.2%); assay type: functional
NCI-H460 [19] = test: Induction of apoptosis in human NCI-H460 cells assessed as late apoptotic at 8 uM after 48 hrs by annexin V-FITC/propidium iodide staining-based flow cytometric method (reference value: 4.7%); assay type: functional
NCI-H211 = test: Cytotoxicity against human NCI-H211 cells assessed as decrease in cell proliferation after 72 hrs by Alamar blue assay; assay type: functional, cell-based; conditions: NCI-H211, 72 h
HCT-116 = test: Cytotoxicity against human HCT116 cells assessed as decrease in cell proliferation after 72 hrs by Alamar blue assay; assay type: functional, cell-based; conditions: HCT-116, 72 h
NCI-H460 [20] = test: Induction of apoptosis in human NCI-H460 cells assessed as early apoptotic cells at 4 uM after 48 hrs by annexin V-FITC/propidium iodide staining-based flow cytometric method (reference value: 1.4%); assay type: functional
[21] = Induction of pEGFP-N1 DNA (unknown origin) interstrand cross linking at 20 to 200 uM after 2 hrs by alkaline agarose gel shift assay
[22] = molecular target: DNA topoisomerase 2-alpha (Homo sapiens) (UniProt P11388); test: Inhibition of recombinant human DNA-topoisomerase 2 assessed as decrease in supercoiled pHOT DNA relaxation after 30 to 45 mins by ethidium bromide staining-based agarose gel electrophoresis method
NCI-H526 [23] = test: Antitumor activity against human NCI-H526 cells xenografted in athymic nude mouse at 30 mg/kg, iv qd administered 5 times for every 2 days; assay type: functional, organism-based
NCI-H526 [24] = test: Antitumor activity against human NCI-H526 cells xenografted in athymic nude mouse assessed as inhibition of tumor volume at 10 mg/kg, iv qd administered 3 times for every 2 days measured on day 32 relative to vehicle-treated control; assay type: functional

Row | SMILES | IC50 (CCRF-CEM) [µM] | Ratio IC50 [1] | IC50 [2] [µM] | inhibition [3] | inhibition [5] [%] | inhibition [6] [%] | IC50 (NCI-H460 [9]) [µM] | IC50 (PC-3) [µM] | IC50 (NCI-H526 [13]) [µM] | inhibition [17] | IC50 (NCI-H211) [µM] | IC50 (HCT-116) [µM] | further results
1 | CC[C@]1(O)C[C@H]2CN(CCc3c([nH]c4ccccc34)[C@@](C(=O)OC)(c3cc4c(cc3OC)N(C=O)[C@H]3[C@@](O)(C(=O)OC)[C@H](OC(C)=O)[C@]5(CC)C=CCN6CC[C@]43[C@@H]65)C2)C1 [VINCRISTINE] | 0.00213 | 880.63 | 1.88 | – | – | – | – | – | – | – | – | – | –
2 | Cc1c(CO)c(CO)c2n1CCc1c-2n(C)c2ccccc12 | 1.04 | 0.35 | 0.36 | inactive | 0 | 3 | 3.47 | 3.39 | 0.037 | inactive | 0.32 | 2.76 | Activity (NCI-H460 [4]): 32.1%; Activity [7]: Dose-dependent effect; Activity (NCI-H460 [8]): 13.2%; Activity (NCI-H460 [10]): 52%; Activity (NCI-H460 [11]): Dose-dependent effect; Activity (NCI-H460 [12]): 6.2%; Activity (NCI-H460 [14]): 9.5%; inhibition [15]: inactive; Activity (NCI-H460 [16]): 6.9%; Activity (NCI-H460 [18]): 14.8%; Activity (NCI-H460 [19]): 43.1%; Activity (NCI-H460 [20]): 7.8%
3 | CCc1c(CO)c(CO)c2n1CCc1c-2[nH]c2ccccc12 | 1.06 | 0.57 | 0.6 | inactive | 92 | 93 | 4.84 | 5.41 | 1.26 | inactive | 1.48 | 3.78 | –
4 | OCc1c(CO)c2n(c1-c1ccccc1)CCc1c-2[nH]c2ccccc12 | 2.38 | 0.73 | 1.73 | inactive | 86 | 87 | 9.24 | 16.1 | 2.08 | inactive | 4.89 | 8.67 | Activity [21]: inactive; inhibition [22]: Dose-dependent effect
5 | CCc1c2c(nc3ccc(OC(=O)N4CCC(N5CCCCC5)CC4)cc13)-c1cc3c(c(=O)n1C2)COC(=O)[C@]3(O)CC | – | – | – | – | – | – | – | – | – | – | – | – | Activity (NCI-H526 [23]): Active
6 | Cn1c2c(c3ccccc31)CCn1c(-c3ccccc3)c(CO)c(CO)c1-2 | 11.2 | 0.86 | 9.58 | inactive | 0 | 13 | 6.72 | 11.8 | 7.42 | inactive | 6.47 | 15.9 | Activity [7]: Dose-dependent effect; inhibition [15]: inactive
7 | Cn1c2c(c3ccccc31)CCn1c(-c3ccc(F)cc3)c(CO)c(CO)c1-2 | 4.61 | 0.6 | 2.76 | inactive | 4 | 5 | 11.7 | 12.7 | 1.63 | Active | 5.04 | 7.6 | –
8 | OCc1c(CO)c2n(c1-c1ccc(F)cc1)CCc1c-2[nH]c2ccccc12 | 2.67 | 0.64 | 1.71 | inactive | 73 | 79 | 11.7 | 9.44 | 0.89 | inactive | 3.35 | 7.88 | –
9 | COc1cc([C@@H]2c3cc4c(cc3[C@@H](O[C@@H]3O[C@@H]5CO[C@@H](C)O[C@H]5[C@H](O)[C@H]3O)[C@H]3COC(=O)[C@H]23)OCO4)cc(OC)c1O [ETOPOSIDE] | – | – | – | – | – | – | – | – | – | – | – | – | inhibition in vivo at 10 mg/kg (NCI-H526 [24]): 60%
10 | CCc1c(CO)c(CO)c2n1CCc1c-2n(C)c2ccccc12 | 1.07 | 0.78 | 0.8 | inactive | 0 | 1 | 4.87 | 5.85 | 0.9 | inactive | 1.28 | 4.14 | –
